Reference: patent publication US9458179B2, “Quinuclidine, 1-azabicyclo[2.2.1]heptane, 1-azabicyclo [3.2.1]octane, and 1-azabicyclo[3.2.2]nonane compounds as alpha-7 nicotinic acetylcholine receptor ligands” (BRISTOL-MYERS SQUIBB COMPANY, priority 2012, dated 2016)

Target: T1, α-7 nicotinic ACh receptor ion channel (Rattus norvegicus, UniProt Q05941)
T1 construct: expressed in transfected cells
Assay: Ca2+-sensitive fluorescence-based FLIPR assay of α7 nicotinic receptor channel function (agonist activity)
Type: cell-based
Settings: FLIPR α7-HI (EC50, nM), HEK 293 cells, Ca2+ flux
Procedure: II) A Ca^2+-Sensitive, Fluorescence-Based Assay α-7 for Nicotinic Acetylcholine Receptor Channel Function in Mammalian Cells (“FLIPR”).
Lead compounds are evaluated for agonist activity at α-7, α3β4, α4αβ2, and α1β1δ1ε sub-types of nicotinic ACh receptor ion channels expressed in mammalian HEK 293 cells. Agonist potency and efficacy values are determined from kinetic fluorescence Ca^2+ influx measurements made using a 384 well FLIPR (Fluorescence Image Plate Reader). […] In this assay, channel expressing HEK cell lines seeded in 384 well assay plates are loaded with a membrane permeant fluorescent Ca^2+ indicator dye, whose 510 nm green emission signal increases in response to elevation of intracellular Ca^2+ concentration. The basal fluorescence from the cells is monitored in real time, followed by the acute addition of test compounds.
Reagents: The acetomethoxy (AM) ester of the Ca^2+ indicator dye Fluo-4 was obtained from InVitrogen, (Carlsbad, Calif.). Acetylcholine and all buffer constituents were purchased from Sigma Chemical Company, St. Louis, Mo. G418 and Minimal Essential Medium were purchased from InVitrogen Life Technologies, Carlsbad, Calif. Fetal bovine serum was purchased from (InVitrogen, Carlsbad, Calif.).
HEK-293 cells were grown in Minimal Essential Medium containing 10% (v/v) fetal bovine serum at 37° C. in a 5% CO2 incubator. HEK-293 cells stably expressing the ion channels were grown in the same medium with the addition of 500 μg/ml G418.
HEK-293 cells expressing the ion channels of interest were plated in 384 well, black-walled, clear-bottomed, poly-D-lysine coated plates at a density of ˜20,000 cells/well in 20 μl of Minimal Essential Medium containing 10% (v/v) fetal bovine serum and incubated for 2 days at 29° C. in a 5% CO2 incubator. Prior to assay, cells were loaded with the Fluo-4 AM ester. […] Dye loading was allowed to proceed for 90 minutes at room temperature at which time the dye loading solution was removed and replaced with 40 μl/well of Hanks buffer. Cells loaded with dye were loaded onto a FLIPR384 (Molecular Devices, Sunnyvale, Calif.). […] Emission was filtered using a 540+/−30 nm bandpass filter. For evaluation of the effects of test compounds using the Ca^2+ flux assay, compounds to be tested were provided in assay ready plates. For nicotinic receptor ion channel expressing cells, the assay was initiated by the addition of 20 μl/well of Hanks buffer containing test compounds. For all assays, data were collected at 1 Hz for 10 seconds (baseline), at which time the compound containing stimulus buffers are added, and further measurements collected at 0.33 Hz for 3 min.
The statistical robustness of the nicotinic receptor Ca^2+ flux assays is determined from blanks and totals wells. […] The raw fluorescence units data files generated on the FLIPR plate reader are automatically exported and processed by in-house data analysis tools. The reduced percent activation data for each concentration of test compound are fit using MathIQ fitting engine (ID Business Solutions Limited, Surrey, UK). Data were analyzed by fitting maximum amplitudes of change in fluorescence, for Ca^2+ flux for a given condition of test compound. […] Test compound efficacy values (Ymax values) are expressed relative to a maximal response to acetylcholine in the total wells.

T1 sequence (Q05941 23-502): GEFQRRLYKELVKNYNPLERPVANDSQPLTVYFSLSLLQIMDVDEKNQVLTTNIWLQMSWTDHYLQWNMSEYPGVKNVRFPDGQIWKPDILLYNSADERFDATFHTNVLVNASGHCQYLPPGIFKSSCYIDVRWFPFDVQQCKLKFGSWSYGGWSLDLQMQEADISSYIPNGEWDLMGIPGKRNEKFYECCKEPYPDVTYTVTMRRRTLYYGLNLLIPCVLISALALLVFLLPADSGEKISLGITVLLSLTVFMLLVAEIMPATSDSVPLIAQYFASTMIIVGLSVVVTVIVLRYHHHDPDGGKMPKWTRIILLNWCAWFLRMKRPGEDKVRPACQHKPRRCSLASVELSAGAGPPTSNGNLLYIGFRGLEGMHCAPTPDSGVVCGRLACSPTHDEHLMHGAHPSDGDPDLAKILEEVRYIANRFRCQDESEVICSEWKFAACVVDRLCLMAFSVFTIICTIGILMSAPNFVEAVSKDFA

Compound | EC50
c1csc(NC2=NCC3(CN4CCC3CC4)N2)n1 (centres unmarked) [Example 9] | 1060 nM
Clc1ccc2nc(NC3=NCC4(CN5CCC4CC5)N3)sc2c1 (centres unmarked) [Example 52] | 154 nM
CN1C(Nc2cc3ccccc3cn2)=NCC12CN1CCC2CC1 (centres unmarked) [Example 15] | 787 nM

Same assay, conditions: FLIPR α7-HI (EC50, nM), HEK 293 cells, Ca2+ flux; Table 1, activity class

Compound | EC50
c1cnc2sc(NC3=NCC4(CN5CCC4CC5)N3)nc2c1 (centres unmarked) [Example 56] | < 100 nM
COc1ccc2nc(NC3=NCC4(CN5CCC4CC5)N3C)sc2c1 (centres unmarked) [Example 2] | 100 to 1000 nM
Cc1cnc2nc(NC3=NCC4(CN5CCC4CC5)N3)sc2n1 (centres unmarked) [Example 41] | 1000 to 100000 nM
c1ccc2sc(NC3=NCC4(CN5CCC4CC5)N3)nc2c1 (centres unmarked) [Example 11] | < 100 nM
Cc1ccc2nc(NC3=NCC4(CN5CCC4CC5)N3)oc2c1 (centres unmarked) [Example 8, N-(6-Methyl-1,3-benzoxazol-2-yl)-1′,5′-dihydrospiro[4-azabicyclo[2.2.2]octane-2,4′-imidazol]-2′-amine] | < 100 nM
COc1ncc2nc(NC3=NCC4(CN5CCC4CC5)N3)sc2n1 (centres unmarked) [Example 19, N-(5-Methoxy[1,3]thiazolo[5,4-d]pyrimidin-2-yl)-1′,5′-dihydrospiro[4-azabicyclo[2.2.2]octane-2,4′-imidazol]-2′-amine] | 1000 to 100000 nM
Fc1ccc2nc(NC3=NCC4(CN5CCC4CC5)N3)sc2n1 (centres unmarked) [Example 44, N-(5-Fluoro[1,3]thiazolo[5,4-b]pyridin-2-yl)-1′,5′-dihydrospiro[4-azabicyclo[2.2.2]octane-2,4′-imidazol]-2′-amine] | 100 to 1000 nM
Cc1ccc2nc(NC3=NCC4(CN5CCC4CC5)N3)sc2c1 (centres unmarked) [Example 63, N-(3,5-dihydro-1′-azaspiro[imidazole-4,3′-bicyclo[2.2.2]octane]-2-yl)-6-methylbenzo[d]thiazol-2-amine] | 100 to 1000 nM
Brc1ccc2nc(NC3=NCC4(CN5CCC4CC5)N3)sc2n1 (centres unmarked) [Example 49] | 100 to 1000 nM
Clc1ccc(NC2=NCC3(CN4CCC3CC4)N2)nn1 (centres unmarked) [Example 25] | 1000 to 100000 nM
c1ccc2nc(NC3=NCC4(CN5CCC4CC5)N3)cnc2c1 (centres unmarked) [Example 36] | 100 to 1000 nM
CN1C(Nc2ncc(Cl)cn2)=NCC12CN1CCC2CC1 (centres unmarked) [Example 18] | 100 to 1000 nM
Cc1nc(C)nc(NC2=NCC3(CN4CCC3CC4)N2)n1 (centres unmarked) [Example 43] | 1000 to 100000 nM
CN1C(Nc2nc3ccccc3o2)=NCC12CN1CCC2CC1 (centres unmarked) [Example 60] | 100 to 1000 nM
CN1C(Nc2nc3ccccc3s2)=NCC12CN1CCC2CC1 (centres unmarked) [Example 12] | 100 to 1000 nM
Clc1ccc2nc(NC3=NCC4(CN5CCC4CC5)N3)sc2n1 (single isomer, unassigned) [Example 28a] | < 100 nM
Fc1cccc2sc(NC3=NCC4(CN5CCC4CC5)N3)nc12 (centres unmarked) [Example 55] | < 100 nM
Cc1ccc2c(NC3=NCC4(CN5CCC4CC5)N3)ncnn12 (centres unmarked) [Example 64] | 100 to 1000 nM
c1ccc2sc(NC3=NCC4(CN5CCC4CC5)N3)nc2c1 (single isomer, unassigned) [Example 11b] | 1000 to 100000 nM

Compound | EC50
CN1C(Nc2ncc(-c3ccccc3)s2)=NCC12CN1CCC2CC1 (centres unmarked) [Example 5] | 1000 to 100000 nM
FC(F)(F)c1ccc2c(NC3=NCC4(CN5CCC4CC5)N3)n[nH]c2c1 (centres unmarked) [Example 51] | > 1e+06 nM
Clc1ccc2nc(NC3=NCC4(CN5CCC4CC5)N3)sc2n1 (single isomer, unassigned) [Example 28b] | 1000 to 100000 nM
Cc1ccc2nc(NC3=NCC4(CN5CCC4CC5)N3)oc2c1 (centres unmarked) [Example 8a] | < 100 nM
CN1C(Nc2nc3ccccn3n2)=NCC12CN1CCC2CC1 (centres unmarked) [Example 35] | 1000 to 100000 nM
c1cnc2sc(NC3=NCC4(CN5CCC4CC5)N3)nc2n1 (centres unmarked) [Example 32, N-[1,3]Thiazolo[4,5-b]pyrazin-2-yl-1′,5′-dihydrospiro[4-azabicyclo[2.2.2]octane-2,4′-imidazol]-2′-amine] | 100 to 1000 nM
CN1C(Nc2nc3ccc(Br)nc3s2)=NCC12CN1CCC2CC1 (centres unmarked) [Example 50] | 1000 to 100000 nM
COc1ccc2sc(NC3=NCC4(CN5CCC4CC5)N3)nc2c1 (centres unmarked) [Example 54] | 100 to 1000 nM
c1csc(NC2=NCC3(CN4CCC3CC4)N2)n1 (centres unmarked) [Example 9] | 1000 to 100000 nM
COc1ccc2nc(NC3=NCC4(CN5CCC4CC5)N3)sc2c1 (centres unmarked) [Example 1, N-(6-Methoxy-1,3-benzothiazol-2-yl)-1′,5′-dihydrospiro[4-azabicyclo[2.2.2]octane-2,4′-imidazol]-2′-amine] | 100 to 1000 nM
Clc1ccc2nc(NC3=NCC4(CN5CCC4CC5)N3)sc2n1 (centres unmarked) [Example 28] | < 100 nM
Cc1nnc(NC2=NCC3(CN4CCC3CC4)N2C)nc1C (centres unmarked) [Example 22] | > 1e+06 nM
CCN1C(Nc2nc3ccc(OC)cc3s2)=NCC12CN1CCC2CC1 (centres unmarked) [Example 3] | 100 to 1000 nM
Clc1cccc2nc(NC3=NCC4(CN5CCC4CC5)N3)sc12 (centres unmarked) [Example 53] | 100 to 1000 nM
Clc1ccc2nc(NC3=NCC4(CN5CCC4CC5)N3)sc2c1 (centres unmarked) [Example 52] | 100 to 1000 nM
CN1C(Nc2cc3ccccc3cn2)=NCC12CN1CCC2CC1 (centres unmarked) [Example 15] | 100 to 1000 nM
CN1C(Nc2ncnc3ccccc23)=NCC12CN1CCC2CC1 (centres unmarked) [Example 24] | 1000 to 100000 nM
COc1cc(NC2=NCC3(CN4CCC3CC4)N2C)ncn1 (centres unmarked) [Example 21] | 100 to 1000 nM
CN1C(Nc2ccc(Cl)nn2)=NCC12CN1CCC2CC1 (centres unmarked) [Example 26] | 100 to 1000 nM

Same assay, conditions: FLIPR α7-HI (EC50, nM), HEK 293 cells, Ca2+ flux; Table 2, activity class column

Compound | EC50
COc1ccc2nc(NC3=NC4(CO3)CN3CCC4CC3)sc2c1 (centres unmarked) [Example 67, N-(6-Methoxybenzo[d]thiazol-2-yl)-5H-1′-azaspiro[oxazole-4,3′-bicyclo[2.2.2]octan]-2-amine] | 1000 to 100000 nM

Same assay, conditions: FLIPR α7-HI (EC50, nM), HEK 293 cells, Ca2+ flux; Table 3

Compound | EC50
c1ccc2cc(NC3=NCCC4(CN5CCC4CC5)O3)ncc2c1 (centres unmarked) [Example 76] | 264 nM
COc1cc(NC2=NCCC3(CN4CCC3CC4)O2)ncn1 (centres unmarked) [Example 80] | 3650 nM
c1ccc2nc(NC3=NCCC4(CN5CCC4CC5)O3)ccc2c1 (centres unmarked) [Example 86] | 1810 nM
c1ccc(-c2cnc(NC3=NCCC4(CN5CCC4CC5)O3)s2)cc1 (centres unmarked) [Example 71] | 87 nM

Same assay, conditions: FLIPR α7-HI (EC50, nM), HEK 293 cells, Ca2+ flux; Table 3, activity class

Compound | EC50
Cc1nnc(NC2=NCCC3(CN4CCC3CC4)O2)nc1C (centres unmarked) [Example 81] | 1000 to 100000 nM
c1ccc2cc(NC3=NCCC4(CN5CCC4CC5)O3)ncc2c1 (centres unmarked) [Example 76] | 100 to 1000 nM
c1ccc2cc(NC3=NCCC4(CN5CCC4CC5)O3)ncc2c1 (single isomer, unassigned) [Example 76a] | 100 to 1000 nM
COc1cc(NC2=NCCC3(CN4CCC3CC4)O2)ncn1 (centres unmarked) [Example 80] | 1000 to 100000 nM
COc1ncc2nc(NC3=NCCC4(CN5CCC4CC5)O3)sc2n1 (centres unmarked) [Example 79, N-(5-Methoxythiazolo[5,4-d]pyrimidin-2-yl)-4,5-dihydro-1′-azaspiro[[1,3]oxazine-6,3′-bicyclo[2.2.2]octan]-2-amine] | 1000 to 100000 nM
c1ccc2nc(NC3=NCCC4(CN5CCC4CC5)O3)ccc2c1 (centres unmarked) [Example 86] | 1000 to 100000 nM
c1ccc2nc(NC3=NCCC4(CN5CCC4CC5)O3)ncc2c1 (centres unmarked) [Example 84] | 100 to 1000 nM
c1ccc(-c2cnc(NC3=NCCC4(CN5CCC4CC5)O3)s2)cc1 (centres unmarked) [Example 71] | < 100 nM
c1ccc2c(NC3=NCCC4(CN5CCC4CC5)O3)ncnc2c1 (centres unmarked) [Example 82] | 100 to 1000 nM
c1ccc2nc(NC3=NCCC4(CN5CCC4CC5)O3)cnc2c1 (centres unmarked) [Example 85] | 1000 to 100000 nM
Clc1ccc(NC2=NCCC3(CN4CCC3CC4)O2)nc1 (centres unmarked) [Example 75] | 1000 to 100000 nM

Same assay, conditions: FLIPR α7-HI (EC50, nM), HEK 293 cells, Ca2+ flux; Table 4, activity class

Compound | EC50
CN1CC2(CN3CCC2CC3)O/C1=N\c1ncc(-c2ccccc2)s1 (centres unmarked) [Example 90, (Z)—N-(3-Methyl-1′-azaspiro[oxazolidine-5,3′-bicyclo[2.2.2]octane]-2-ylidene)-5-phenylthiazol-2-amine] | 100 to 1000 nM
CN1CC2(CN3CCC2CC3)O/C1=N\c1cnc(Cl)cn1 (centres unmarked) [Example 91, (Z)-5-Chloro-N-(3-methyl-1′-azaspiro[oxazolidine-5,3′-bicyclo[2.2.2]octane]-2-ylidene)pyrazin-2-amine] | 1000 to 100000 nM
COc1ccc2nc(/N=C3\OC4(CN5CCC4CC5)CN3C)sc2c1 (centres unmarked) [Example 89, (Z)-6-Methoxy-N-(3-methyl-1′-azaspiro[oxazolidine-5,3′-bicyclo[2.2.2]octane]-2-ylidene)benzo[d]thiazol-2-amine] | > 1e+06 nM

Same assay, conditions: HEK 293 cells, Ca2+ flux; Table 3, activity class; read-out: FLIPR α7-HI (EC50)

Compound | EC50
c1ccc2[nH]c(NC3=NCCC4(CN5CCC4CC5)O3)nc2c1 (centres unmarked) [Example 77] | > 1e+06 nM

Same assay, conditions: HEK 293 cells, Ca2+ flux; Table 3; read-out: FLIPR α7-HI (EC50)

Compound | EC50
c1ccc2[nH]c(NC3=NCCC4(CN5CCC4CC5)O3)nc2c1 (centres unmarked) [Example 77] | > 100000 nM
